Activity calls are given as the source filed them. How the calls were made is not given here.
test system: Broad 7084-01 inhibitor HTS, set 2; assay: single-concentration hits, screen 7084 set 2 (AID 977613);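 further: host cells are infected with parasite promastigotes that become internalized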

SMILES | active concentration
N#C[C@@H]1[C@H](c2ccccc2-c2cccc(F)c2)[C@H](CO)N1S(=O)(=O)c1cccc(F)c1 | > 10 µM (inactive)
C[C@H](O)C#Cc1ccc([C@H]2[C@@H](CO)N3CCCCN(C(=O)c4ccc5c(c4)OCO5)C[C@H]23)cc1 | > 10 µM (inactive)
CCc1csc(N2[C@H](C#N)[C@H](c3ccccc3-c3ccc(F)cc3)[C@H]2CO)n1 | > 10 µM (inactive)
N#C[C@@H]1[C@@H](c2ccccc2-c2cccc(F)c2)[C@@H](CO)N1C(=O)C1CC1 | > 10 µM (inactive)
COc1ccc2c3c([nH]c2c1)[C@@H](CO)NCC31CN(Cc2cc(F)ccc2F)C1 | > 10 µM (inactive)
O=C(c1ccccc1F)N1CC(=O)N2[C@H](CO)[C@@H](c3ccc(C#Cc4ccccc4)cc3)[C@H]2C1 | > 10 µM (inactive)
N#C[C@@H]1[C@H](c2ccccc2C2=CCCC2)[C@@H](CO)N1C(=O)CN1CCOCC1 | > 10 µM (inactive)
COCC(=O)N1[C@H](C#N)[C@H](c2ccccc2-c2ccc(C)cc2)[C@@H]1CO | > 10 µM (inactive)
O=C(c1cccc(F)c1)N1CCCCN2[C@H](CO)[C@@H](c3ccc(C#CC4(O)CCCC4)cc3)[C@H]2C1 | > 10 µM (inactive)
COc1ccc2c3c([nH]c2c1)[C@@H](CO)N(C(=O)c1cccnc1)CC31CCN(C(=O)CN(C)C)CC1 | > 10 µM (inactive)
COc1ccc2c3c([nH]c2c1)[C@@H](CO)N(C(=O)c1ccc(F)cc1)CC31CCN(S(=O)(=O)c2cccs2)CC1 | > 10 µM (inactive)
COCC#Cc1ccc([C@H]2[C@@H](CO)N3C(=O)CN(C(=O)Nc4ccccc4F)C[C@@H]23)cc1 | > 10 µM (inactive)
O=C(C[C@H]1CC[C@@H]2[C@H](COC[C@@H](O)CN2CC2CC2)O1)NCC1CC1 | > 10 µM (inactive)
CS(=O)(=O)N1C[C@H](O)COC[C@@H]2O[C@@H](CC(=O)NCc3ccc(-c4ccccc4)cc3)CC[C@H]21 | > 10 µM (inactive)
O=C(Nc1cccc(F)c1)N1CCCCN2[C@H](C1)[C@@H](c1ccc(C#Cc3cccnc3)cc1)[C@@H]2CO | > 10 µM (inactive)
CN1C(=O)c2cc(NC(=O)c3cnccn3)ccc2OC[C@@H]2O[C@@H](CC(=O)NCC3CCCCC3)CC[C@H]21 | > 10 µM (inactive)
CN(C)CC(=O)N1[C@H](C#N)[C@@H](c2ccccc2-c2ccccc2F)[C@H]1CO | > 10 µM (inactive)
O=C(CC1CC1)N1[C@H](CO)[C@@H](c2ccccc2)C12CN(Cc1cccnc1)C2 | > 10 µM (inactive)
CC(C)(O)C#Cc1ccc([C@@H]2[C@H](CO)N3CCCCN(S(C)(=O)=O)C[C@@H]23)cc1 | > 10 µM (inactive)
COc1ccccc1C(=O)Nc1ccc2c(c1)C(=O)N(C)[C@@H]1CC[C@H](CC(=O)NCCc3ccncc3)O[C@@H]1CO2 | > 10 µM (inactive)
N#C[C@H]1[C@@H](c2ccccc2-c2ccccc2F)[C@H](CO)N1C(=O)C1CCC1 | > 10 µM (inactive)
O=C(C[C@@H]1CC[C@H]2[C@@H](COC[C@H](O)CN2Cc2ccc3c(c2)OCO3)O1)Nc1ccccc1 | > 10 µM (inactive)
CCC(=O)N1C[C@@H]2[C@H](c3ccccc31)[C@H](CO)N2C(=O)CC | > 10 µM (inactive)

SMILES | active concentration
O=C(Nc1ccccc1F)N1CC(=O)N2[C@@H](CO)[C@H](c3ccc(-c4cccnc4)cc3)[C@@H]2C1 | > 10 µM (inactive)
COc1ccc2c3c(n(C)c2c1)[C@H](CO)N(C(=O)Nc1ccc(F)cc1)CC31CCN(S(=O)(=O)c2cccc(C)c2)CC1 | > 10 µM (inactive)
O=S(=O)(c1ccccc1)N1CCCCN2[C@@H](CO)[C@H](c3ccc(C#CC4CCCC4)cc3)[C@@H]2C1 | > 10 µM (inactive)
Cc1ccccc1-c1ccc([C@@H]2[C@@H](CO)N3C(=O)CN(S(C)(=O)=O)C[C@@H]23)cc1 | > 10 µM (inactive)
COc1ccc2c3c([nH]c2c1)[C@H](CO)N(Cc1ccncc1)CC31CCN(CC2CCOCC2)CC1 | > 10 µM (inactive)
Cn1cnc(S(=O)(=O)N2C[C@@H](O)COC[C@H]3O[C@@H](CC(=O)NC4CCCC4)CC[C@@H]32)c1 | > 10 µM (inactive)
COc1ccccc1-c1ccc([C@@H]2[C@@H](CO)N(CC3CC3)C23CN(S(C)(=O)=O)C3)cc1 | > 10 µM (inactive)
Cc1nn(C)cc1NC(=O)C[C@H]1CC[C@H]2[C@@H](COc3ccc(NC(=O)C4CCOCC4)cc3C(=O)N2C)O1 | > 10 µM (inactive)
O=C(C1CC1)N1CC2(C1)[C@H](c1ccccc1)[C@@H](CO)N2Cc1nccs1 | > 10 µM (inactive)
COc1cccc(CN2CC3(CN(C)C3)c3c([nH]c4cc(OC)ccc34)[C@H]2CO)c1 | > 10 µM (inactive)
O=C([C@@H]1[C@@H](CO)[C@@H]2Cn3c(cccc3=O)[C@H]1N2CC1CC1)N1CCc2ccccc2C1 | > 10 µM (inactive)
Cn1cnc(S(=O)(=O)N2C[C@@H](O)COC[C@H]3O[C@H](CC(=O)NC4CCCC4)CC[C@@H]32)c1 | > 10 µM (inactive)
COc1cccc(S(=O)(=O)N2CCCCN3[C@H](C2)[C@@H](c2ccc(C#CCC(C)C)cc2)[C@@H]3CO)c1 | > 10 µM (inactive)
COc1ccc2c3c(n(C)c2c1)[C@H](CO)N(CC1CCOCC1)CC31CCN(C(=O)CN(C)C)CC1 | > 10 µM (inactive)
CN1CCN(C(=O)C[C@H]2CC[C@H]3[C@@H](COC[C@@H](O)CN3C(=O)C3CC3)O2)CC1 | > 10 µM (inactive)
C/C=C/c1ccc([C@@H]2[C@@H](CO)N3C(=O)CN(S(=O)(=O)c4ccccc4)C[C@H]23)cc1 | > 10 µM (inactive)
O=S(=O)(c1cccs1)N1CCCCN2[C@H](CO)[C@@H](c3ccc(/C=C/c4ccccc4)cc3)[C@@H]2C1 | > 10 µM (inactive)
C/C=C/c1ccc([C@@H]2[C@H](CO)N(CC3CCOCC3)C23CN(S(=O)(=O)CC)C3)cc1 | > 10 µM (inactive)
COc1cc(CN2CC3(CN(C(=O)CN4CCOCC4)C3)c3c(n(C)c4cc(OC)ccc34)[C@@H]2CO)cc(OC)c1 | > 10 µM (inactive)
C/C=C/c1ccccc1[C@H]1[C@@H](CO)N(C(=O)Nc2cccc(F)c2)[C@H]1C#N | > 10 µM (inactive)
O=C(C[C@H]1CC[C@H]2[C@@H](COC[C@@H](O)CN2C(=O)c2ccccc2)O1)Nc1ccc(-c2ccccc2)cc1 | > 10 µM (inactive)
COc1ccc2c3c([nH]c2c1)[C@@H](CO)NCC31CN(C(=O)Nc2ccc3c(c2)OCO3)C1 | > 10 µM (inactive)
Cc1cc(C(=O)Nc2ccc3c(c2)C(=O)N(C)[C@@H]2CC[C@@H](CC(=O)NCc4ccc(-c5ccccc5)cc4)O[C@H]2CO3)no1 | > 10 µM (inactive)

SMILES | active concentration
O=C(Cc1ccccc1)N1C[C@H]2[C@@H](c3ccccc31)[C@@H](CO)N2C(=O)c1cccc(F)c1 | > 10 µM (inactive)
O=C(C[C@H]1CC[C@@H]2[C@H](COC[C@@H](O)CN2S(=O)(=O)c2ccccc2)O1)Nc1ccccc1 | > 10 µM (inactive)
O=C(CN1CCOCC1)N1CC(=O)N2[C@H](C1)[C@@H](c1ccc(-c3cccc(F)c3)cc1)[C@@H]2CO | > 10 µM (inactive)
CCCN1[C@H](C(=O)Nc2nccs2)[C@@H](CO)[C@@H]2Cn3c(ccc(-c4ccccc4OC)c3=O)[C@@H]21 | > 10 µM (inactive)
COC(=O)C[C@H]1CC[C@@H]2[C@H](COc3ccc(NC(=O)c4cccc(Cl)c4)cc3C(=O)N2C)O1 | > 10 µM (inactive)
COc1cccc(C(=O)Nc2ccc3c(c2)C(=O)N(C)[C@H]2CC[C@H](CC(=O)NCCCN4CCOCC4)O[C@H]2CO3)c1 | > 10 µM (inactive)
CCCNC(=O)N1[C@@H](CO)[C@@H](c2ccccc2)C12CN(C(=O)C1CCCCC1)C2 | > 10 µM (inactive)
COc1ccc(C#Cc2ccc3c(c2)[C@H]2[C@H](CCN2C(=O)Nc2ccc(C(F)(F)F)cc2)[C@@H](CO)N3C)cc1 | > 10 µM (inactive)
COC(=O)c1ccc(CN2CC(=O)N3[C@@H](CO)[C@H](c4ccc(-c5cccnc5)cc4)[C@@H]3C2)cc1 | > 10 µM (inactive)
CCC(=O)N1CC2(C1)[C@@H](c1ccccc1)[C@@H](CO)N2C(=O)NC(C)C | > 10 µM (inactive)
Cc1noc(C)c1NC(=O)N1C[C@H](O)COC[C@H]2O[C@@H](CC(=O)NCC3CCCCC3)CC[C@@H]21 | > 10 µM (inactive)
C[C@@H](O)C#Cc1ccc([C@@H]2[C@@H](CO)N3CCCCN(C(=O)c4ccc5c(c4)OCO5)C[C@H]23)cc1 | > 10 µM (inactive)
CC(C)CC#Cc1ccc([C@H]2[C@H]3CN(S(=O)(=O)c4cccc(F)c4)CC(=O)N3[C@H]2CO)cc1 | > 10 µM (inactive)
CN1CCCCN2[C@H](CO)[C@H](c3ccc(-c4ccc(F)cc4)cc3)[C@@H]2C1 | > 10 µM (inactive)
O=C(C[C@H]1CC[C@H]2[C@@H](COC[C@@H](O)CN2C(=O)Nc2ccc(C(F)(F)F)cc2)O1)NCC1CC1 | > 10 µM (inactive)
O=C(Cc1ccncc1)N1CC(=O)N2[C@H](CO)[C@H](c3ccc(Br)cc3)[C@@H]2C1 | > 10 µM (inactive)
O=C(C1CCCCC1)N1CC2(C1)[C@@H](c1ccccc1)[C@H](CO)N2C(=O)c1cccnc1 | > 10 µM (inactive)
O=C(NC1Cc2ccccc2C1)[C@H]1[C@H](CO)[C@H]2Cn3c(cccc3=O)[C@@H]1N2C(=O)CC1CC1 | > 10 µM (inactive)
COc1ccccc1CNC(=O)C[C@@H]1CC[C@@H]2[C@H](COC[C@@H](O)CN2C(=O)Nc2ccccc2)O1 | > 10 µM (inactive)
CC(C)C#Cc1ccc([C@H]2[C@@H](CO)N3C(=O)CN(C(=O)Cc4ccccc4)C[C@H]23)cc1 | > 10 µM (inactive)
COc1ccc(NC(=O)N2CCCCN3[C@H](C2)[C@@H](c2ccc(-c4ccccc4F)cc2)[C@@H]3CO)cc1 | > 10 µM (inactive)
O=C(C[C@@H]1CC[C@H]2[C@@H](COC[C@@H](O)CN2Cc2ccc3c(c2)OCO3)O1)Nc1ccccc1 | > 10 µM (inactive)
COc1cccc(C(=O)Nc2ccc3c(c2)C(=O)N(C)[C@@H]2CC[C@H](CC(=O)NCCCN4CCOCC4)O[C@H]2CO3)c1 | > 10 µM (inactive)

Source: PubChem BioAssay AID977613 (Broad Institute, 2014)
